Results taken from patent US20250082633A1, “COMPOUNDS AND METHODS FOR MODULATING SPLICING” (REMIX THERAPEUTICS INC., priority 2021, published 2025).
Read-outs that look alike come from different tables or passages of the source.

Experiments:
Assay type in all cases: cell-based
MYB mRNA = test: RT-qPCR splicing assay, MYB canonical (CJ) and alternative (AJ) junction mRNA; details: Homo sapiens; for IC50: read-out: MYB CJ IC50; for AC50: read-out: MYB AJ AC50
Method in brief: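 Splice-junction mRNAs (CJ, AJ) measured by TaqMan one-step RT-qPCR on cell lysates, using PPIA as reference for adherent A673 and GAPDH or GUSB for K562. Cells exposed for 24 h to 11 threefold concentrations up to 10 uM final, with DMSO at or below 0.25%.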

SMN2 mRNA = test: RT-qPCR splicing assay, gene panel, SMN2 canonical junction (CJ) mRNA; details: Homo sapiens, read-out: SMN2 CJ IC50
Method in brief: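 A673 (DMEM/10% FBS) or K562 (IMDM/10% FBS) cells were treated 24 h at 37 °C with an 11-point 3-fold dilution series, top final 10 uM, DMSO ≤0.25%. Lysates underwent one-step RT-qPCR for the canonical-junction isoform with GAPDH, GUSB or PPIA as housekeeper. ΔΔCt versus DMSO was converted to RQ (2^−ΔΔCt), then to percent response.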

K562 cells = test: Cell Titer Glo 2.0 cell viability assay; details: Homo sapiens, 500 cells/well, 72 hours
Method in brief: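 K562 cells (500/well) in IMDM with 10% FBS were exposed to serially diluted compounds at 0.1% DMSO final. After 72 h at 37° C, 5% CO2, viability was read by CellTiter-Glo 2.0 luminescence, with medium-only blanks.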

[1] = decrease in CJ mRNA levels, larger panel of genes, Table 3
[2] = decrease in canonical junction mRNA, A673 or K562 cells, 24 hours treatment, Table 2
[3] = increase in alternative junction mRNA, A673 or K562 cells, 24 hours treatment, Table 2

| Compound | IC50 (MYB mRNA; [1]) [µM] | IC50 (MYB mRNA; [2]) [µM] | AC50 (MYB mRNA; [3]) [µM] | IC50 (SMN2 mRNA; [1]) [µM] | GI50 (K562 cells) [µM] | AC50 (MYB mRNA; 24 h) [µM] | IC50 (MYB mRNA; 24 h) [µM] | IC50 (MYB mRNA) [µM] | IC50 (SMN2 mRNA) [µM] |
| --- | --- | --- | --- | --- | --- | --- | --- | --- | --- |
| Cc1cn2nc(-c3cc(F)c4nn([C@@H]5CCNC[C@H]5F)cc4c3)cc(C)c2n1 [Compound 168, 6-(7-fluoro-2-((3R,4R)-3-fluoropiperidin-4-yl)-2H-indazol-5-yl)-2,8-dimethylimidazo [1,2-b]pyridazine] | 0.1 to 1 | 0.1 to 1 | 0.1 to 1 | < 0.1 | 0.1 to 1 |  |  |  |  |
| COc1cc2nn(C3CCNCC3)cc2cc1-c1cc(C)c2nc(C)cn2n1 [Compound 159, 6-(6-methoxy-2-(piperidin-4-yl)-2H-indazol-5-yl)-2,8-dimethylimidazo[1,2-b]pyridazine] | > 10 | > 10 | > 10 | > 10 | > 10 |  |  |  |  |
| Cn1cc2cc(-c3ccc4nn(C5CCNCC5)cc4n3)c(O)c(F)c2n1 [Compound 107, 7-fluoro-2-methyl-5-[2-(4-piperidyl)pyrazolo [4,3-b]pyridin-5-yl]indazol-6-ol] | 0.1 to 1 | 0.1 to 1 | 0.1 to 1 | < 0.1 | 0.1 to 1 |  |  |  |  |
| Cc1ncc2cc(-c3cc(F)c4nn(C5CCNCC5)cc4c3)ccc2n1 [Compound 165, 6-[7-fluoro-2-(4-piperidyl)indazol-5-yl]-2-methyl-quinazoline] | > 10 | > 10 | > 10 | > 10 | > 10 |  |  |  |  |
| CCN1CCC(n2cc3cc(-c4cc(F)c5nn(C)cc5c4)cc(F)c3n2)CC1 [Compound 104, 2-(1-ethyl-4-piperidyl)-7-fluoro-5-(7-fluoro-2-methyl-indazol-5-yl)indazole] | 1 to 10 | 1 to 10 | 1 to 10 | < 0.1 | 1 to 10 |  |  |  |  |
| Cc1cn2nc(-n3cc4cc(C5CCNCC5)cc(F)c4n3)cc(C)c2n1 [Compound 120, 6-[7-fluoro-5-(4-piperidyl)indazol-2-yl]-2,8-dimethyl-imidazo[1,2-b]pyridazine] | > 10 | > 10 | 1 to 10 | 0.1 to 1 | 1 to 10 |  |  |  |  |
| Cc1nc2c(F)cc(-c3cc(F)c4nn(C5CCNCC5)cc4c3)cc2o1 [Compound 136, 4-fluoro-6-[7-fluoro-2-(4-piperidyl)indazol-5-yl]-2-methyl-1,3-benzoxazole] | 0.1 to 1 | 0.1 to 1 | 0.1 to 1 | < 0.1 | 0.1 to 1 |  |  |  |  |
| Cc1cn2nc(-c3cc(F)c4nn(C5CCNCC5)cc4c3)cc2c(C)n1 [Compound 124, 2-[7-fluoro-2-(4-piperidyl)indazol-5-yl]-4,6-dimethyl-pyrazolo[1,5-a]pyrazine] | 0.1 to 1 | 0.1 to 1 | 0.1 to 1 | < 0.1 | 0.1 to 1 |  |  |  |  |
| Cc1cn2nc(-c3cc(F)c4nn([C@@H]5CCNC6(CC6)C5)cc4c3)cc(C)c2n1 [Compound 173] | 0.1 to 1 | 0.1 to 1 | 0.1 to 1 | < 0.1 | 0.1 to 1 |  |  |  |  |
| CCN1CCC(n2cc3cc(-c4cc(C)c5nc(C)cn5n4)cc(F)c3n2)CC12CC2 (stereo not shown) [Compound 177, 6-[2-(4-ethyl-4-azaspiro[2.5]octan-7-yl)-7-fluoro-indazol-5-yl]-2,8-dimethyl-imidazo[1,2-b]pyridazine] | 0.1 to 1 | 0.1 to 1 | 0.1 to 1 | < 0.1 | 0.1 to 1 |  |  |  |  |
| Cc1cn2nc(-c3cc(F)c4nn(C5CCN(C6CCC6)C6(CC6)C5)cc4c3)cc(C)c2n1 (stereo not shown) [Compound 186, 6-[2-(4-cyclobutyl-4-azaspiro[2.5]octan-7-yl)-7-fluoro-indazol-5-yl]-2,8-dimethyl-imidazo[1,2-b]pyridazine] |  |  |  |  | 0.1 to 1 | 0.1 to 1 | 0.1 to 1 | 0.1 to 1 | < 0.1 |
| COc1cc(-c2cc(C)c3nc(C)cn3n2)cc2cn(C3CCNCC3)nc12 [Compound 155, 6-(7-methoxy-2-(piperidin-4-yl)-2H-indazol-5-yl)-2,8-dimethylimidazo [1,2-b]pyridazine] | 0.1 to 1 | 0.1 to 1 | 0.1 to 1 | < 0.1 | 0.1 to 1 |  |  |  |  |
| Cn1cc2cc(-c3ccc4nn(C5CCNCC5)cc4c3)cc(F)c2n1 [Compound 105, 7-fluoro-2-methyl-5-[2-(4-piperidyl)indazol-5-yl]indazole] | 0.1 to 1 | 0.1 to 1 | 1 to 10 | < 0.1 | 0.1 to 1 |  |  |  |  |
| Cc1cn2nc(-c3ccc4nn(C5CCNCC5)cc4n3)cc(C)c2n1 [Compound 138, 2,8-dimethyl-6-[2-(4-piperidyl)pyrazolo[4,3-b]pyridin-5-yl]imidazo[1,2-b]pyridazine] | 0.1 to 1 | 0.1 to 1 | 1 to 10 | < 0.1 | 1 to 10 |  |  |  |  |
| Cc1ccc2nc(-c3cc(F)c4nn(C5CCNCC5)cc4c3)ccc2n1 [Compound 157, 2-[7-fluoro-2-(4-piperidyl)indazol-5-yl]-6-methyl-1,5-naphthyridine] | 1 to 10 | 1 to 10 | > 10 | 1 to 10 | > 10 |  |  |  |  |
| Cc1cn2nc(-c3cc(F)c4nn(C5CCNCC5F)cc4c3)cc(C)c2n1 (stereo not shown) [Compound 166, 6-[7-fluoro-2-(3-fluoro-4-piperidyl)indazol-5-yl]-2,8-dimethyl-imidazo [1,2-b]pyridazine] | 0.1 to 1 | 0.1 to 1 | 0.1 to 1 | < 0.1 | 1 to 10 |  |  |  |  |
| Cn1cc2cc(-c3cc(F)c4nn(C5CCNCC5)nc4c3)cc(F)c2n1 [Compound 103, 4-fluoro-6-(7-fluoro-2-methyl-indazol-5-yl)-2-(4-piperidyl) benzotriazole] | 1 to 10 | 1 to 10 | 1 to 10 | 0.1 to 1 | 1 to 10 |  |  |  |  |
| COC1=C(C)C2N=C(C)OC2C=C1c1cc(F)c2nn(C3CCNCC3)cc2n1 (stereo not shown) [Compound 144] | > 10 | > 10 | > 10 | 1 to 10 | 1 to 10 |  |  |  |  |
| Cc1cn2cc(-c3cc(F)c4nn(C5CCNCC5)cc4c3)cc(F)c2n1 [Compound 129, 7-fluoro-5-(8-fluoro-2-methylimidazo[1,2-a]pyridin-6-yl)-2-(piperidin-4-yl)-2H-indazole] | 0.1 to 1 | 0.1 to 1 | 0.1 to 1 | < 0.1 | 0.1 to 1 |  |  |  |  |
| Cc1c(O)c(-c2cc(F)c3nn(C4CCNCC4)cc3c2)cc2cn(C)nc12 [Compound 126, 5-[7-fluoro-2-(4-piperidyl)indazol-5-yl]-2,7-dimethyl-indazol-6-ol] | > 10 | > 10 | > 10 | 1 to 10 | > 10 |  |  |  |  |
| Cc1nc2c(C)cc(-c3cc(F)c4nn(C5CCNCC5)cc4c3)cc2o1 [Compound 137, 6-[7-fluoro-2-(4-piperidyl)indazol-5-yl]-2,4-dimethyl-1,3-benzoxazole] | 0.1 to 1 | 0.1 to 1 | 0.1 to 1 | < 0.1 | 0.1 to 1 |  |  |  |  |
| Cc1cn2nc(-c3cc(F)c4nn(C5CCN(CCO)CC5)cc4c3)cc(C)c2n1 [Compound 160, 2-[4-[5-(2,8-dimethylimidazo[1,2-b]pyridazin-6-yl)-7-fluoro-indazol-2-yl]-1-piperidyl]ethanol] |  |  |  |  | 0.1 to 1 | 0.1 to 1 | 0.1 to 1 | 0.1 to 1 | < 0.1 |
| Cc1cn2nc(-c3cc(O)c4nn(C5CCNCC5)cc4c3)cc(C)c2n1 [Compound 156, 5-(2,8-dimethylimidazo[1,2-b]pyridazin-6-yl)-2-(piperidin-4-yl)-2H-indazol-7-ol] | 1 to 10 | 1 to 10 | 1 to 10 | 0.1 to 1 | 1 to 10 |  |  |  |  |
